{"source": "patent US10906905B2", "about": "“Five-membered heteroaryl ring bridged ring derivative, preparation method therefor and medical use thereof” (Jiangsu Hengrui Medicine Co., Ltd., priority 2016, dated 2021)", "key": {"[1]": {"system": "Smad signaling pathway of TGFβRI", "test": "Inhibition of Smad signaling pathway of TGFβRI (3TP-lux luciferase reporter in HepG2 cell)", "format": "cell-based", "conditions": "Homo sapiens; HepG2 cell, 3TP-lux plasmid, 18 hours; read-out: IC50 on the inhibition of Smad signaling pathway of TGFβRI"}, "[2]": {"test": "Pharmacokinetics assay in rats after intragastrical administration", "format": "in vivo", "conditions": "both sexes, Sprague-Dawley, rat, plasma, po, SD rats, 2 mg/kg; for Vd/F: read-out: Apparent distribution volume Vz/F; for AUC: read-out: Area under curve AUC; for CL/F: read-out: Clearance CLz/F; for half-life: read-out: Half-life T1/2 (converted); for Cmax: read-out: Plasma concentration Cmax; for MRT: read-out: Residence time MRT", "description": "Rats were used as test animals. The drug concentration in plasma at different time points was determined by LC/MS/MS method after intragastrical administration of the compounds of Examples 1-1, 1-2, 2-1, 3-1, the compound with retention time of 6.631 minutes among Examples 9-1 and 9-2, and the compounds of Examples 33 and 39-1 to rats. The pharmacokinetic behavior of the compounds of the present invention was studied and evaluated in rats.\nCompounds of Examples 1-1, 1-2, 2-1, 3-1, compound with retention time of 6.631 minutes among Examples 9-1 and 9-2, and compounds of Examples 33 and 39-1.\nTwenty-eight healthy adult Sprague-Dawley (SD) rats (half male and half female) were purchased from SINO-BRITISH SIPPR/BK LAB. ANIMAL LTD., CO, with Certificate No.: SCXK (Shanghai) 2008-0016, and equally divided into 7 groups (4 rats per group).\nA certain amount of the test compound was weighed, and added with 5% by volume of DMSO, 5% by volume of Tween 80, and 90% by volume of physiological saline were added to prepare a 0.2 mg/mL colorless, clear and transparent solution.\nAfter an overnight fast, SD rats were administered intragastrically the test compounds at an administration dosage of 2.0 mg/kg and an administration volume of 10.0 mL/kg.\nThe rats were intragastrically administered the compounds of Examples 1-1, 1-2, 2-1, 3-1, the compound with retention time of 6.631 minutes among Examples 9-1 and 9-2, and the compounds of Examples 33 and 39-1.0.2 mL of blood was taken from the orbital sinus before administration and at 0.5, 1.0, 2.0, 4.0, 6.0, 8.0, 11.0 and 24.0 hours after administration. The samples were stored in heparinized tubes, and centrifuged for 10 minutes at 4° C. at 3,500 rpm to separate the blood plasma. The plasma samples were stored at −20° C. The rats were fed 2 hours after administration.\nThe content of the test compounds in the plasma of rats after intragastrical administration of the test compounds at different concentrations was determined: 25 μL of rat plasma at each time after administration was taken, added with 50 μL (100 ng/mL) of the internal standard solution of camptothecin and 175 μL of acetonitrile, shaken vertically for 5 minutes, and centrifuged for 10 minutes (4000 rpm). 3.0 μL of the supernatant was taken from the plasma samples for LC/MS/MS analysis."}, "[3]": {"system": "NIH3T3 cell", "test": "Inhibition of NIH3T3 cell proliferation (CellTiter-Glo)", "format": "cell-based", "conditions": "Mus musculus, 72 hours, 0.5% FBS", "description": "The inhibition effect of the compounds of the present invention on NIH3T3 cell proliferation was determined by the following in vitro test.\nThe inhibition effect of the compounds of the present invention on NIH3T3 cell proliferation was determined by the following experimental method:\nOn a 96-well white plate with transparent bottom (3903, Corning), 100 μL of NIH3T3 cell (GNM6, Cell Bank of Typical Culture Collection Committee of Chinese Academy of Sciences) was seeded in a DMEM medium containing 10% FBS in each well. The seeding density is 2000 cells/well. The cells were incubated overnight at 37° C., 5% CO2. After overnight incubation, each well was replaced with 90 μL of DMEM medium containing 0.5% FBS. 10 μl of a 3-fold gradient dilution of the compounds with DMEM medium containing 0.5% FBS was then added, and the plate was incubated for 72 hours in a cell incubator at 37° C., 5% CO2. Finally, 50 μL of CellTiter-Glo (G7573, Promega) was added to each well. After incubation for 10 minutes at room temperature, the chemiluminescence signal values were measured with a Victor 3 microplate reader (PerkinElmer). The IC50 values of the compounds were calculated using Graphpad Prism software based on each concentration of the compound and the corresponding signal value thereof."}, "[4]": {"biological_target": "recombinant human VEGFR2 enzyme (Homo sapiens (Human), UniProt P35968)", "sequence (P35968 20-1356)": "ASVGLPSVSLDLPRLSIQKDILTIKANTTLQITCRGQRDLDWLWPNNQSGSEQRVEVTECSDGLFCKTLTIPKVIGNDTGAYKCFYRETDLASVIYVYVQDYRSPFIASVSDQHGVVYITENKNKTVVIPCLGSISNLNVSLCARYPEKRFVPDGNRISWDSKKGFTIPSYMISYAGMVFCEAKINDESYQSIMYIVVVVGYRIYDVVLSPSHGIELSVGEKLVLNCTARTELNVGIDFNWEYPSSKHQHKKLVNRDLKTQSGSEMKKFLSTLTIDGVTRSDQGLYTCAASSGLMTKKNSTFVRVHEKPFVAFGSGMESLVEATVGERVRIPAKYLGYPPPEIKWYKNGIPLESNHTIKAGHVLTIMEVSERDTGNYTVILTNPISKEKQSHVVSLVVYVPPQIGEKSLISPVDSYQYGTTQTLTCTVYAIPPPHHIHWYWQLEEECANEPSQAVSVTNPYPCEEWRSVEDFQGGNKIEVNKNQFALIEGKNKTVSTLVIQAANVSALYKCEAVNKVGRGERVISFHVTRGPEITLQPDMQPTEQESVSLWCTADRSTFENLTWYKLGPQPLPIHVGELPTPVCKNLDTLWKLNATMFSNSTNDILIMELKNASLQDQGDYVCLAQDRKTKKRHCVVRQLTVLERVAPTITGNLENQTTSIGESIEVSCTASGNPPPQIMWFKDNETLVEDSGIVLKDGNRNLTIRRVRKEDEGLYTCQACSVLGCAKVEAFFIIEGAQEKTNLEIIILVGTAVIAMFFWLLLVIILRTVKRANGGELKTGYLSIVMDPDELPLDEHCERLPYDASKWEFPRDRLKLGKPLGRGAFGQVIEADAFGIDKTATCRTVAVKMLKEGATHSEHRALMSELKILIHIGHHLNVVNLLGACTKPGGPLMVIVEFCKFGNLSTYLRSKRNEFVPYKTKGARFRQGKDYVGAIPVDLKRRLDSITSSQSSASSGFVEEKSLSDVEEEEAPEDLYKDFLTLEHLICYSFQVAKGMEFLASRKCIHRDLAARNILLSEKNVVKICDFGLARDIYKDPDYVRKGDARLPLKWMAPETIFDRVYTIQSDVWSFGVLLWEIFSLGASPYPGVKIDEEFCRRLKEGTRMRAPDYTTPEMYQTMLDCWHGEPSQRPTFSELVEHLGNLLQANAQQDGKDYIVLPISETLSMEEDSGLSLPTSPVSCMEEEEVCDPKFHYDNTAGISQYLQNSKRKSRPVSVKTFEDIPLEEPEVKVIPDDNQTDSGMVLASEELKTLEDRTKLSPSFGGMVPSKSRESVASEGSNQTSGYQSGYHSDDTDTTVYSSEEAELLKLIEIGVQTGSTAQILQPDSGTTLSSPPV", "test": "Inhibition of VEGFR2 kinase activity (Z'-LYTE Kinase Assay Kit)", "format": "biochemical", "conditions": "ATP 50 μM; read-out: IC50 of inhibition effect on VEGFR2 kinase activity", "description": "The inhibition effect of VEGFR2 kinase activity in vitro was determined by the following method.\nThe inhibition effect of the compounds of the present invention on VEGFR2 kinase activity was determined by the following experimental method:\nAfter reaction at 25° C. for 2 hours, 5 μL of detection reagent was added to each well. […] The IC50 values of the compounds for enzyme inhibition were calculated using Graphpad prism software based on each concentration of the compound and the corresponding signal value thereof."}}, "data": [{"compound": "Cc1cccc(-c2nc3n(c2-c2ccc4nnc(C(N)=O)n4c2)[C@H]2CC[C@@H]3C2)n1", "note": "[Example 2-1, 6-((5S,8R)-2-(6-Methylpyridin-2-yl)-5,6,7,8-tetrahydro-5,8-methanoimidazo[1,2-a]pyridin-3-yl)[1,2,4]triazolo[4,3-a]pyridine-3-carboxamide]", "values": [{"measurement": "IC50", "setting": "[1]", "result": 21, "unit": "nM"}, {"measurement": "Vd/F", "setting": "[2]", "result": "7.8 ± 1.33", "unit": "L/kg"}, {"measurement": "AUC", "setting": "[2]", "result": "664 ± 93", "unit": "ng·h/mL"}, {"measurement": "CL/F", "setting": "[2]", "result": "50.8 ± 7.2", "unit": "mL/min/kg"}, {"measurement": "half-life", "setting": "[2]", "result": "1.77 ± 0.2", "unit": "h"}, {"measurement": "Cmax", "setting": "[2]", "result": "351 ± 52", "unit": "ng/mL"}, {"measurement": "MRT", "setting": "[2]", "result": "2.3 ± 0.37", "unit": "h"}, {"measurement": "IC50", "setting": "[3]", "result": 44, "unit": "nM"}, {"measurement": "IC50", "setting": "[4]", "result": 1160, "unit": "nM"}]}, {"compound": "NC(=O)c1ccnc2ccc(-c3c(-c4ccc(F)cn4)nc4n3[C@H]3CC[C@@H]4C3)cc12", "note": "[Example 39-1, 6-((5S,8R)-2-(5-Fluoropyridin-2-yl)-5,6,7,8-tetrahydro-5,8-methanoimidazo[1,2-a]pyridin-3-yl)quinoline-4-carboxamide]", "values": [{"measurement": "IC50", "setting": "[1]", "result": 24, "unit": "nM"}, {"measurement": "Vd/F", "setting": "[2]", "result": "18.3 ± 17.4", "unit": "L/kg"}, {"measurement": "AUC", "setting": "[2]", "result": "689 ± 609", "unit": "ng·h/mL"}, {"measurement": "CL/F", "setting": "[2]", "result": "121 ± 116", "unit": "mL/min/kg"}, {"measurement": "half-life", "setting": "[2]", "result": "2.06 ± 0.86", "unit": "h"}, {"measurement": "Cmax", "setting": "[2]", "result": "317 ± 269", "unit": "ng/mL"}, {"measurement": "MRT", "setting": "[2]", "result": "2.44 ± 1.16", "unit": "h"}, {"measurement": "IC50", "setting": "[3]", "result": 88, "unit": "nM"}, {"measurement": "IC50", "setting": "[4]", "result": 6300, "unit": "nM"}]}, {"compound": "Cc1cccc(-c2nc3n(c2-c2ccnc(-c4ccc(S(C)(=O)=O)cc4)c2)[C@H]2CC[C@@H]3C2)n1", "note": "[Example 3-1, (5S,8R)-2-(6-Methylpyridin-2-yl)-3-(2-(4-(methylsulfonyl)phenyl)pyridin-4-yl)-5,6,7,8-tetrahydro-5,8-methanoimidazo[1,2-a]pyridine]", "values": [{"measurement": "IC50", "setting": "[1]", "result": 19, "unit": "nM"}, {"measurement": "Vd/F", "setting": "[2]", "result": "3.3 ± 1.1", "unit": "L/kg"}, {"measurement": "AUC", "setting": "[2]", "result": "800 ± 208", "unit": "ng·h/mL"}, {"measurement": "CL/F", "setting": "[2]", "result": "43.4 ± 10.4", "unit": "mL/min/kg"}, {"measurement": "half-life", "setting": "[2]", "result": "0.868 ± 0.1", "unit": "h"}, {"measurement": "Cmax", "setting": "[2]", "result": "502 ± 128", "unit": "ng/mL"}, {"measurement": "MRT", "setting": "[2]", "result": "1.43 ± 0.06", "unit": "h"}, {"measurement": "IC50", "setting": "[3]", "result": 28, "unit": "nM"}, {"measurement": "IC50", "setting": "[4]", "result": 2890, "unit": "nM"}]}, {"compound": "Cc1cccc(-c2nc3n(c2-c2ccc4nccc(C(N)=O)c4c2)[C@H]2CC[C@@H]3C2)n1", "note": "[Example 1-1, 6-((5S,8R)-2-(6-Methylpyridin-2-yl)-5,6,7,8-tetrahydro-5,8-methanoimidazo[1,2-a]pyridin-3-yl)quinoline-4-carboxamide]", "values": [{"measurement": "IC50", "setting": "[1]", "result": 36, "unit": "nM"}, {"measurement": "Vd/F", "setting": "[2]", "result": "23.5 ± 19.4", "unit": "L/kg"}, {"measurement": "AUC", "setting": "[2]", "result": "637 ± 355", "unit": "ng·h/mL"}, {"measurement": "CL/F", "setting": "[2]", "result": "68.6 ± 39.2", "unit": "mL/min/kg"}, {"measurement": "half-life", "setting": "[2]", "result": "3.42 ± 1.29", "unit": "h"}, {"measurement": "Cmax", "setting": "[2]", "result": "208 ± 61", "unit": "ng/mL"}, {"measurement": "MRT", "setting": "[2]", "result": "3.88 ± 0.26", "unit": "h"}, {"measurement": "IC50", "setting": "[3]", "result": 89, "unit": "nM"}, {"measurement": "IC50", "setting": "[4]", "result": 3050, "unit": "nM"}]}]}
